According to patent publication US20230107642A1 (Erasca, Inc., priority 2020, published 2023):

Molecular target: T1, Cys12 of the KRAS 4B G12C protein (Homo sapiens, UniProt P01116, G12C)
T1 construct: This protein contained 188 amino acids in total, including an N-terminal 6-Histidine tag; made in house; host or cells: E. coli BL21
Assay: In vitro covalent adduct formation (CAF) assay, LC-MS intact mass
Format: binding
Details: 10 uM compound, 60 min
Outline: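 GDP-loaded (>95%) His-TEV-tagged KRAS 4B G12C (residues 1–169), 5 μM in TBS pH 7.4, incubated with 10 μM compound (4% DMSO) at 22° C for one hour. Intact-protein LC-MS gave free:adduct ratios, reported as percent protein modified; duplicate runs.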

| Structure (SMILES) | % CAF 10 uM @ 60 min [%] |
| --- | --- |
| C=CC(=O)N1CCN(c2nc(=O)n3c4c(c(-c5c(F)ccc6cnn(C)c56)c(C(F)(F)F)cc24)SC[C@@H]3COC)CC1 (atropisomer, axis not shown) [Example 1416, (3S,10R)-7-(4-acryloylpiperazin-1-yl)-10-(6-fluoro-1-methyl-1H-indazol-7-yl)-3-(methoxymethyl)-9-(trifluoromethyl)-2,3-dihydro-5H-[1,4]thiazino[2,3,4-ij]quinazolin-5-one] | 71.3 |
| C=CC(=O)N1[C@H](C)CN(c2nc(=O)n3c4c(c(-c5cc(Cl)c(F)cc5F)c(C(F)(F)F)cc24)SCC(COC)(COC)C3)C[C@@H]1C (atropisomer, axis not shown) [Example 1420, (S)-8-((3S,5R)-4-acryloyl-3,5-dimethylpiperazin-1yl)-11-(5-chloro-2,4-difluorophenyl)-3,3-bis(methoxymethyl)-10-(trifluoromethyl)-3,4-dihydro-2H,6H-[1,4]thiazepino[2,3,4-ij]quinazolin-6-one] | 93 |
| C=CC(=O)N1[C@H](C)CN(c2nc(=O)n3c4c(c(-c5cc(Cl)c(F)cc5F)c(C(F)(F)F)cc24)SCC(COC)(COC)C3)C[C@@H]1C (atropisomer, axis not shown) [Example 1421, (R)-8-((3S,5R)-4-acryloyl-3,5-dimethylpiperazin-1-yl)-11-(5-chloro-2,4-difluorophenyl)-3,3-bis(methoxymethyl)-10-(trifluoromethyl)-3,4-dihydro-2H,6H-[1,4]thiazepino[2,3,4-ij]quinazolin-6-one] | 91 |
| [2H]C([2H])([2H])OC[C@H]1CSc2c(-c3ccc(F)cc3F)c(C(F)(F)F)cc3c(N4C[C@@H](C)N(C(=O)C=C)[C@@H](C)C4)nc(=O)n1c23 (atropisomer, axis not shown) [Example 1423, (3S,10R)-7-((3S,5R)-4-acryloyl-3,5-dimethylpiperazin-1-yl)-10-(2,4-difluorophenyl)-3-((methoxy-d3)methyl)-9-(trifluoromethyl)-2,3-dihydro-5H-[1,4]thiazino[2,3,4-ij]quinazolin-5-one] | 95.1 |
| [2H]C([2H])([2H])OC[C@H]1CSc2c(-c3ccc(F)cc3F)c(C(F)(F)F)cc3c(N4C[C@@H](C)N(C(=O)C=C)[C@@H](C)C4)nc(=O)n1c23 (atropisomer, axis not shown) [Example 1424, (3S,10S)-7-((3S,5R)-4-acryloyl-3,5-dimethylpiperazin-1-yl)-10-(2,4-difluorophenyl)-3-((methoxy-d3)methyl)-9-(trifluoromethyl)-2,3-dihydro-5H-[1,4]thiazino[2,3,4-ij]quinazolin-5-one] | 95.4 |
| C=CC(=O)N1[C@H](C)CN(c2nc(=O)n3c4c(c(-c5ccc(F)cc5F)c(C(F)(F)F)cc24)SC[C@@H]3CN2CC[C@H](F)C2)C[C@@H]1C (atropisomer, axis not shown) [Example 1428, (3S,10S)-7-((3S,5R)-4-acryloyl-3,5-dimethylpiperazin-1-yl)-10-(2,4-difluorophenyl)-3-(((S)-3-fluoropyrrolidin-1-yl)methyl)-9-(trifluoromethyl)-2,3-dihydro-5H-[1,4]thiazino[2,3,4-ij]quinazolin-5-one] | 72 |
| C=CC(=O)N1[C@H](C)CN(c2nc(=O)n3c4c(c(-c5ccc(F)cc5F)c(C(F)(F)F)cc24)SC[C@@H]3CN2CC[C@H](F)C2)C[C@@H]1C (atropisomer, axis not shown) [Example 1429, (3S,10R)-7-((3S,5R)-4-acryloyl-3,5-dimethylpiperazin-1-yl)-10-(2,4-difluorophenyl)-3-(((S)-3-fluoropyrrolidin-1-yl)methyl)-9-(trifluoromethyl)-2,3-dihydro-5H-[1,4]thiazino[2,3,4-ij]quinazolin-5-one] | 79 |
| [2H]C([2H])=C([2H])C(=O)N1C[C@H](C)N(c2nc(=O)n3c4c(c(-c5cc(Cl)c(F)cc5F)c(C(F)(F)F)cc24)SCC2(COC2)C3)C[C@H]1C (atropisomer, axis not shown) [Example 1433, (S)-8′-((2S,5R)-4-(Acryloyl-d3)-2,5-dimethylpiperazin-1-yl)-11′-(5-chloro-2,4-difluorophenyl)-10′-(trifluoromethyl)-2′H,4′H,6′H-spiro[oxetane-3,3′-[1,4]thiazepino[2,3,4-ij]quinazolin]-6′-one] | 70 |
| [2H]C([2H])=C([2H])C(=O)N1C[C@H](C)N(c2nc(=O)n3c4c(c(-c5cc(Cl)c(F)cc5F)c(C(F)(F)F)cc24)SCC2(COC2)C3)C[C@H]1C (atropisomer, axis not shown) [Example 1434, (R)-8′-((2S,5R)-4-(Acryloyl-d3)-2,5-dimethylpiperazin-1-yl)-11′-(5-chloro-2,4-difluorophenyl)-10′-(trifluoromethyl)-2′H,4′H,6′H-spiro[oxetane-3,3′-[1,4]thiazepino[2,3,4-ij]quinazolin]-6′-one] | 82 |
| C=CC(=O)N1[C@H](C)CN(c2nc(=O)n3c4c(c(-c5cc(Cl)c(F)cc5F)c(C(F)(F)F)cc24)SC[C@@H]3CN2CC[C@H](F)C2)C[C@@H]1C (atropisomer, axis not shown) [Example 1438, (3S,10S)-7-((3S,5R)-4-acryloyl-3,5-dimethylpiperazin-1-yl)-10-(5-chloro-2,4-difluorophenyl)-3-(((S)-3-fluoropyrrolidin-1-yl)methyl)-9-(trifluoromethyl)-2,3-dihydro-5H-[1,4]thiazino[2,3,4-ij]quinazolin-5-one] | 54 |
| C=CC(=O)N1[C@H](C)CN(c2nc(=O)n3c4c(c(-c5cc(Cl)c(F)cc5F)c(C(F)(F)F)cc24)SC[C@@H]3CN2CC[C@H](F)C2)C[C@@H]1C (atropisomer, axis not shown) [Example 1439, (3S,10R)-7-((3S,5R)-4-acryloyl-3,5-dimethylpiperazin-1-yl)-10-(5-chloro-2,4-difluorophenyl)-3-(((S)-3-fluoropyrrolidin-1-yl)methyl)-9-(trifluoromethyl)-2,3-dihydro-5H-[1,4]thiazino[2,3,4-ij]quinazolin-5-one] | 73 |

More lines, now with the values ahead:

| % CAF 10 uM @ 60 min [%] | Structure (SMILES) |
| --- | --- |
| 51 | C=CC(=O)N1[C@H](C)CN(c2nc(=O)n3c4c(c(-c5cc(Cl)c(F)cc5F)c(C(F)(F)F)cc24)SC[C@@H](N2CCCC2)C3)C[C@@H]1C (atropisomer, axis not shown) [Example 1440, (3S,11S)-8-((3S,5R)-4-acryloyl-3,5-dimethylpiperazin-1-yl)-11-(5-chloro-2,4-difluorophenyl)-3-(pyrrolidin-1-yl) 10-(trifluoromethyl)-3,4-dihydro-[1,4]thiazepino[2,3,4-ij]quinazolin-6-one] |
| 79 | C=CC(=O)N1[C@H](C)CN(c2nc(=O)n3c4c(c(-c5cc(Cl)c(F)cc5F)c(C(F)(F)F)cc24)SC[C@@H](N2CCCC2)C3)C[C@@H]1C (atropisomer, axis not shown) [Example 1441, (3S,11R)-8-((3S,5R)-4-acryloyl-3,5-dimethylpiperazin-1-yl)-11-(5-chloro-2,4-difluorophenyl)-3-(pyrrolidin-1-yl) 10-(trifluoromethyl)-3,4-dihydro-2H,6H-[1,4]thiazepino[2,3,4-ij]quinazolin-6-one] |
| 95 | C=CC(=O)N1C[C@H](C)N(c2nc(=O)n3c4c(c(-c5cc(Br)c(F)cc5F)c(C(F)(F)F)cc24)SCC2(COC2)C3)C[C@H]1C (atropisomer, axis not shown) [Example 1445, (R)-8′-((2S,5R)-4-Acryloyl-2,5-dimethylpiperazin-1-yl)-11′-(5-bromo-2,4-difluorophenyl)-10′-(trifluoromethyl)-2′H,4′H,6′H-spiro[oxetane-3,3′-[1,4]thiazepino[2,3,4-ij]quinazolin]-6′-one] |
| 45 | C=CC(=O)N1C[C@H](C)N(c2nc(=O)n3c4c(c(-c5cc(Br)c(F)cc5F)c(C(F)(F)F)cc24)SCC2(COC2)C3)C[C@H]1C (atropisomer, axis not shown) [Example 1446, (S)-8′-((2S,5R)-4-Acryloyl-2,5-dimethylpiperazin-1-yl)-11′-(5-bromo-2,4-difluorophenyl)-10′-(trifluoromethyl)-2′H,4′H,6′H-spiro[oxetane-3,3′-[1,4]thiazepino[2,3,4-ij]quinazolin]-6′-one] |
| 97 | C=CC(=O)N1[C@H](C)CN(c2nc(=O)n3c4c(c(-c5cc(Br)c(F)cc5F)c(C(F)(F)F)cc24)SC[C@@H]3COC)C[C@@H]1C (atropisomer, axis not shown) [Example 1447, (3S,10R)-7-((3S,5R)-4-Acryloyl-3,5-dimethylpiperazin-1-yl)-10-(5-bromo-2,4-difluorophenyl)-3-(methoxymethyl)-9-(trifluoromethyl)-2,3-dihydro-5H-[1,4]thiazino[2,3,4-ij]quinazolin-5-one] |
| 95 | C=CC(=O)N1[C@H](C)CN(c2nc(=O)n3c4c(c(-c5cc(Br)c(F)cc5F)c(C(F)(F)F)cc24)SC[C@@H]3COC)C[C@@H]1C (atropisomer, axis not shown) [Example 1448, (3S,10S)-7-((3S,5R)-4-Acryloyl-3,5-dimethylpiperazin-1-yl)-10-(5-bromo-2,4-difluorophenyl)-3-(methoxymethyl)-9-(trifluoromethyl)-2,3-dihydro-5H-[1,4]thiazino[2,3,4-ij]quinazolin-5-one] |

Same assay, conditions: 10 uM compound, 60 min incubation

| Structure (SMILES) | % CAF 10 uM @ 60 min [%] |
| --- | --- |
| C=CC(=O)N1C[C@H](C)N(c2nc(=O)n3c4c(c(-c5cc(Cl)c(F)cc5F)c(C(F)(F)F)cc24)SCC2(COC2)C3)C[C@H]1C (single isomer, unassigned) [Example 1120] | 64.9 |
| C=CC(=O)N1C[C@H](C)N(c2nc(=O)n3c4c(c(-c5cc(Cl)c(F)cc5F)c(C(F)(F)F)cc24)SCC2(COC2)C3)C[C@H]1C (single isomer, unassigned) [Example 1121] | 95.5 |
| C=CC(=O)N1[C@H](C)CN(c2nc(=O)n3c4c(c(-c5cc(Cl)c(F)cc5F)c(C(F)(F)F)cc24)SC[C@@H]3COC)C[C@@H]1C (single isomer, unassigned) [Example 1139] | 95.9 |
